Reference: PMC9604775, “Bioactive Peptides from Skipjack Tuna Cardiac Arterial Bulbs: Preparation, Identification, Antioxidant Activity, and Stability against Thermal, pH, and Simulated Gastrointestinal Digestion Treatments” (Marine Drugs, 2022)
Where a SMILES comes first, the peptide text is derived from it. Where no end group is shown, it is not given here.

Assays:
[1] = Stability to simulated gastrointestinal digestion (DPPH· scavenging activity); assay type: in vitro ADME; conditions: two-stage model: pepsin 120 min then trypsin 120 min; 0 to 240 min; peptide 2.0 mg/mL; read-out DPPH· scavenging activity
Protocol: The stability of TCP1 to TCP11 from tuna cardiac arterial bulbs was determined according to the previous method with a slight modification. The DPPH· scavenging activity (%) of TCP1 to TCP11 at 2.0 mg/mL were measured at the set conditions to evaluate their stability.
The thermostability of TCP1 to TCP11 at 20, 40, 60, 80, or 100 °C for 60 min was analyzed in water bath. The influences of pH values of 3, 5, 7, 9, or 11 were employed to estimate the acid and alkali stability properties of TCP1 to TCP11 at 25 °C, and the detecting time was set to 60, 120, and 180 min, respectively. The influence of simulate GI digestion on the stability of TCP1 to TCP11 was evaluated by the two-stage digestion model. In short, APs (TCP1 to TCP11) were separately treated with pepsin for 120 min and trypsin for 120 min.

[2] = set-up: method as in 10 sources, ref 24 = [24]; PMID 35127795; doi:10.3389/fnut.2021.813780; 24. Wang J. Wang Y.M. Li L.Y. Chi C.F. Wang B. Twelve antioxidant peptides from protein hydrolysate of Skipjack tuna ( Katsuwonus pelamis ) roe prepared by flavourzyme: Purification, sequence identifi ||| ref 43 = [43]; doi:10.1016/j.foodres.2010.02.009; 43. You L. Zhao M. Regenstein J.M. Ren J. Purification and identification of antioxidant peptides from loach ( Misgurnus anguillicaudatus ) protein hydrolysate by consecutive chromatography and electr ||| ref 44 = [44]; doi:10.1016/j.jff.2015.03.045; 44. Chi C.F. Hu F.Y. Wang B. Li T. Ding G.F. Antioxidant and anticancer peptides from protein hydrolysate of blood clam ( Tegillarca granosa ) muscle J. Funct. Foods 2015 15 301 313 10.1016/j.jff.2015 ||| ref 42 = [42]; PMID 35621976; doi:10.3390/md20050325; 42. Sheng Y. Qiu Y.T. Wang Y.M. Chi C.F. Wang B. Novel antioxidant collagen peptides of Siberian sturgeon ( Acipenser baerii ) cartilages: The preparation, characterization, and cytoprotection of H 2 ||| ref 45 = [45]; PMID 23411302; doi:10.1016/j.foodchem.2012.12.002; 45. Wang B. Li L. Chi C.F. Ma J.H. Luo H.Y. Xu Y.F. Purification and Characterization of a novel antioxidant peptide derived from blue mussel ( Mytilus edulis ) protein hydrolysate Food Chem. 2013 138 ||| ...; conditions: literature value; cited from earlier work
[3] = set-up: method as in 10 sources, ref 24 = [24]; PMID 35127795; doi:10.3389/fnut.2021.813780; 24. Wang J. Wang Y.M. Li L.Y. Chi C.F. Wang B. Twelve antioxidant peptides from protein hydrolysate of Skipjack tuna ( Katsuwonus pelamis ) roe prepared by flavourzyme: Purification, sequence identifi ||| ref 55 = [55]; doi:10.1016/j.jff.2016.06.008; 55. Pan X. Zhao Y.Q. Hu F.Y. Wang B. Preparation and identification of antioxidant peptides from protein hydrolysate of skate (Raja porosa) cartilage J. Funct. Foods 2016 25 220 230 10.1016/j.jff.2016 ||| ref 48 = [48]; PMID 31035632; doi:10.3390/md17050251; 48. Yang X.R. Qiu Y.T. Zhao Y.Q. Chi C.F. Wang B. Purification and characterization of antioxidant peptides derived from protein hydrolysate of the marine bivalve mollusk Tergillarca granosa Mar Drugs ||| ref 15 = [15]; doi:10.1016/j.jff.2018.06.014; 15. Zhao W.H. Luo Q.B. Pan X. Chi C.F. Sun K.L. Wang B. Preparation, identification, and activity evaluation of ten antioxidant peptides from protein hydrolysate of swim bladders of miiuy croaker ( Mi ||| ref 47 = [47]; PMID 35531284; doi:10.3389/fmicb.2022.791248; 47. Sun K. Gao M. Wang Y.Z. Li X.R. Wang P. Wang B. Antioxidant peptides from protein hydrolysate of marine red algae Eucheuma cottonii : Preparation, identification, and cytoprotective mechanisms on ||| ...; conditions: literature value; cited from earlier work
[4] = set-up: method as in 10 sources, ref 51 = [51]; doi:10.1016/j.jff.2015.04.042; 51. Cai L. Wu X. Zhang Y. Li X. Ma S. Li J. Purification and characterization of three antioxidant peptides from protein hydrolysate of grass carp ( Ctenopharyngodon idella ) skin J. Funct. Foods 2015 ||| ref 42 = [42]; PMID 35621976; doi:10.3390/md20050325; 42. Sheng Y. Qiu Y.T. Wang Y.M. Chi C.F. Wang B. Novel antioxidant collagen peptides of Siberian sturgeon ( Acipenser baerii ) cartilages: The preparation, characterization, and cytoprotection of H 2 ||| ref 24 = [24]; PMID 35127795; doi:10.3389/fnut.2021.813780; 24. Wang J. Wang Y.M. Li L.Y. Chi C.F. Wang B. Twelve antioxidant peptides from protein hydrolysate of Skipjack tuna ( Katsuwonus pelamis ) roe prepared by flavourzyme: Purification, sequence identifi ||| ref 48 = [48]; PMID 31035632; doi:10.3390/md17050251; 48. Yang X.R. Qiu Y.T. Zhao Y.Q. Chi C.F. Wang B. Purification and characterization of antioxidant peptides derived from protein hydrolysate of the marine bivalve mollusk Tergillarca granosa Mar Drugs ||| ref 43 = [43]; doi:10.1016/j.foodres.2010.02.009; 43. You L. Zhao M. Regenstein J.M. Ren J. Purification and identification of antioxidant peptides from loach ( Misgurnus anguillicaudatus ) protein hydrolysate by consecutive chromatography and electr ||| ...; conditions: literature value; cited from earlier work
[5] = set-up: method as in 5 sources, ref 41 = [41]; doi:10.1016/j.procbio.2022.01.008; 41. Wang Y.M. Li X.Y. Wang J. He Y. Chi C.F. Wang B. Antioxidant peptides from protein hydrolysate of skipjack tuna milt: Purification, identification, and cytoprotection on H 2 O 2 damaged human umbi ||| ref 44 = [44]; doi:10.1016/j.jff.2015.03.045; 44. Chi C.F. Hu F.Y. Wang B. Li T. Ding G.F. Antioxidant and anticancer peptides from protein hydrolysate of blood clam ( Tegillarca granosa ) muscle J. Funct. Foods 2015 15 301 313 10.1016/j.jff.2015 ||| ref 20 = [20]; doi:10.1016/j.jff.2014.10.027; 20. Chi C.F. Wang B. Wang Y.M. Zhang B. Deng S.G. Isolation and characterization of three antioxidant peptides from protein hydrolysate of bluefin leatherjacket ( Navodon septentrionalis ) heads J. Fu ||| ref 48 = [48]; PMID 31035632; doi:10.3390/md17050251; 48. Yang X.R. Qiu Y.T. Zhao Y.Q. Chi C.F. Wang B. Purification and characterization of antioxidant peptides derived from protein hydrolysate of the marine bivalve mollusk Tergillarca granosa Mar Drugs ||| ref 39 = [39]; PMID 31430875; doi:10.3390/antiox8080318; 39. Zhang L. Zhao G.X. Zhao Y.Q. Qiu Y.T. Chi C.F. Wang B. Identification and active evaluation of antioxidant peptides from protein hydrolysates of skipjack tuna ( Katsuwonus pelamis ) head Antioxida; conditions: literature value; cited from earlier work

Row | Compound | EC50 DPPH· [2] [µg/mL] | EC50 O2^−· [3] [µg/mL] | EC50 HO· [4] [µg/mL] | other results
1 | CC(C)C[C@H](NC(=O)CN)C(=O)N[C@@H](CC(N)=O)C(=O)O [TCP10, Gly-Leu-Asn] (H-Gly-Leu-Asn-OH) | – | – | – | Declined percentage of DPPH· scavenging activity after simulated GI digestion [1]: 3.15%
2 | EGPFGPEG [literature antioxidant peptide from redlip croaker scales] | 370 | 470 | – | –
3 | EPLSD [literature antioxidant peptide from blood cockle] | – | 2040 | – | –
4 | EYEA [literature antioxidant peptide from Antarctic krill] | – | 793 | 946 | –
5 | FIMGPY [literature antioxidant peptide from skate cartilages] | – | 1610 | – | –
6 | FYKA [literature antioxidant peptide from Eucheuma cottonii] | 2560 | 1910 | – | –
7 | GDRGD [TCP11, Gly-Asp-Arg-Gly-Asp] | – | – | – | Declined percentage of DPPH· scavenging activity after simulated GI digestion [1]: 2.65%
8 | GEEGD [TCP5, Gly-Glu-Glu-Gly-Asp] | – | – | – | Declined percentage of DPPH· scavenging activity after simulated GI digestion [1]: 4.25%
9 | GEGQR [TCP8, Gly-Glu-Gly-Gln-Arg] | – | – | – | Declined percentage of DPPH· scavenging activity after simulated GI digestion [1]: 4.21%
10 | GFIGPTE [literature antioxidant peptide from redlip croaker scales] | 450 | 740 | – | –
11 | GFYAA [literature antioxidant peptide from Miichthys miiuy swim bladders] | – | 3030 | – | –
12 | GHHAAA [literature antioxidant peptide from tuna milts] | – | – | – | EC50 ABTS^+· [5]: 1120 µg/mL
13 | GPEGPMGLE [literature antioxidant peptide from redlip croaker scales] | 590 | 620 | 450 | –
14 | GVPLT [literature antioxidant peptide from Navodon septentrionalis heads] | – | – | – | EC50 ABTS^+· [5]: 3124 µg/mL
15 | IELFPGLP [literature antioxidant peptide from Siberian sturgeon cartilages] | 1380 | – | 1630 | –
16 | LKQELEDLLEKQE [literature antioxidant peptide from Pacific oyster] | – | – | 46 | –
17 | NADFGLNGLEGLA [literature antioxidant peptide from giant squid] | – | – | 612 | –

Row | Compound | EC50 DPPH· [2] [µg/mL] | EC50 O2^−· [3] [µg/mL] | EC50 HO· [4] [µg/mL] | other results
18 | NGLEGLK [literature antioxidant peptide from giant squid] | – | 420 | – | –
19 | PSYV [literature antioxidant peptide from pond loach meat] | 2640 | – | 2640 | –
20 | PYGAKG [literature antioxidant peptide from S. niphonius skins] | – | 800 | – | –
21 | QAEP [literature antioxidant peptide from tuna roes] | – | 2916 | – | –
22 | QDHKA [literature antioxidant peptide from tuna milts] | – | – | 536 | –
23 | SLPY [literature antioxidant peptide from Antarctic krill] | – | – | 826 | –
24 | SVTEV [literature antioxidant peptide from tuna milts] | 890 | – | – | EC50 ABTS^+· [5]: 1020 µg/mL
25 | TTANIEDRR [literature antioxidant peptide from salmon pectoral fin] | 2500 | – | – | –
26 | VGGRP [literature antioxidant peptide from grass carp skin] | – | – | 2060 | –
27 | VPDDD [literature antioxidant peptide from Miichthys miiuy swim bladders] | – | 4110 | – | –
28 | VRDQY [literature antioxidant peptide from tuna milts] | 880 | – | – | EC50 ABTS^+· [5]: 1040 µg/mL
29 | WLDPDG [literature antioxidant peptide from T. granosa] | – | – | 1540 | –
30 | WPPD [literature antioxidant peptide from blood cockle (T. granosa)] | 360 | 460 | 380 | EC50 ABTS^+· [5]: 540 µg/mL
31 | YAVT [literature antioxidant peptide from Eucheuma cottonii] | – | 560 | – | –
32 | YGPM [literature antioxidant peptide from Scomberomorous niphonius skins] | – | 730 | – | EC50 ABTS^+· [5]: 820 µg/mL
33 | YPPAK [literature antioxidant peptide from Mytilus edulis] | 2620 | 72 | 228 | –
34 | YSKT [literature antioxidant peptide from Eucheuma cottonii] | 1710 | – | – | –
